Assay results published in patent US6767738B1, “Method of isolating adult mammalian CNS-derived progenitor stem cells using density gradient centrifugation” (The Salk Institute for Biological Studies, priority 1999, dated 2004).

Test system: c-Fos
Test: c-Fos immunofluorescence double labeling after neurotrophin stimulation
Format: cell-based, rat
Conditions: RA for 6 days prior to stimulation by neurotrophins
Experimental: Cell Culture. For proliferating conditions, clonal stem cells (AP14) were cultured in Dulbecco's Modified Eagles Medium/Ham's F12 (DMEM/F12, 1:1) containing N2 supplement (Gibco BRL, Gaithersburg, Md.) and 20 ng/ml rhFGF-2 (provided by A. Baird, Prizm Pharmaceuticals Inc., La Jolla, Calif.). Culture dishes (Becton Dickinsin Labware, Lincoln Park, N.J.) were coated with polyomithine and mouse laminin as previously described by Ray, et al., Proliferation, differentiation and long-term culture of primary hippocampal neurons, Proc Natl Acad Sci USA 90:3602-3606 (1993). For differentiation experiments, cells were plated into polyornithine/laminin coated glass chamber slides (Nunc, Naperville, Ill.) at a density of 2.5—103 per cm2. The cells were incubated for 24 hrs in normal N2 medium containing 20 ng/ml FGF-2, and then the medium was replaced by N2 medium containing 0.5% […] (FBS) and 0.01% DMSO (control solvent) or […] all-trans retinoic acid (Sigma, St. Louis, Mo.). […]
Immunofluorescence. […] Both the average percentage and the absolute number +/− SEM of immunofluorescent cells were determined by counting 10 or 50 high power fields (20×) visualized under fluorescence. The total number of cells was counted using nuclear counterstaining with 4′,6diamidino-2-phenylindole (DAPI, Sigma). […]

CC1=C(/C=C/C(C)=C/C=C/C(C)=C/C(=O)O)C(C)(C)CCC1 [RA, all-trans retinoic acid]
number of c-Fos-positive cells: significantly enhanced
